Results as given in patent US7396910B2, “Transient receptor potential channel TRPV3 and its use” (IRM LLC, priority 2001, dated 2008).
Entries after “also recorded” stand apart in the source; their conditions may differ.

Experiments:
[1] = target: T1, Mouse TRPV3 (Mus musculus, UniProt Q8K424, A9V); test: Whole-cell voltage clamp of TRPV3-expressing CHO cells (heat-evoked currents); format: cell-based
T1 construct: expressed in transfected cells
T1 sequence (Q8K424 1-791 A9V): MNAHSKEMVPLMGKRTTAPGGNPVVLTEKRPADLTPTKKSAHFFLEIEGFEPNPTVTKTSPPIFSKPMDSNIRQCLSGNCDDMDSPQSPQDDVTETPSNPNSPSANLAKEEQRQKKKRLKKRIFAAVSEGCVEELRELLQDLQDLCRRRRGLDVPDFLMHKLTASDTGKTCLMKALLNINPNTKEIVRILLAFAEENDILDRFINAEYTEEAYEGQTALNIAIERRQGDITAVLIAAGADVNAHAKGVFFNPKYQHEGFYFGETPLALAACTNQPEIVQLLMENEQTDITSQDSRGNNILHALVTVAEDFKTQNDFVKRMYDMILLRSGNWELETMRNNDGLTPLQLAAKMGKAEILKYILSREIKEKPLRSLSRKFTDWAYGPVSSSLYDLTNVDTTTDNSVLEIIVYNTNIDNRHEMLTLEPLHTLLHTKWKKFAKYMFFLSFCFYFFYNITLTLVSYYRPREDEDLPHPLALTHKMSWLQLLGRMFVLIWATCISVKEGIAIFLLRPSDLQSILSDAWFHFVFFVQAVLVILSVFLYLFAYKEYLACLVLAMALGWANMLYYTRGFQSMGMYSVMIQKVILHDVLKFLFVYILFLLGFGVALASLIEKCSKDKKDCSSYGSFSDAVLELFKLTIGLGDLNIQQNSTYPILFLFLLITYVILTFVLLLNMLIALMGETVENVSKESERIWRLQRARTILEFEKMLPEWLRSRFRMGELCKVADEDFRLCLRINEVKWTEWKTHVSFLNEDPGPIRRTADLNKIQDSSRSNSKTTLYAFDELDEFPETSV
Experimental: Given the high degree of homology of TRPV3 to TRPV family members, TRPV3 is tested to determine whether it responds to stimuli known to activate other closely-related family members. Accordingly, the effects of heat upon TRPV3 activity in mediating conductance are examined using whole-cell patch-clamp analysis of transfected CHO cell lines expressing TRPV3.
Mouse TRPV3 and rat TRPV1 cDNA are subcloned into pcDNA5 (Invitrogen) and transfected into CHO-K1/FRT cells using Fugene 6 (Roche). The transfected cells are selected by growth in MEM medium containing 200 μg/mL hygromycin (Gibco BRL). Populations are frozen at early passages and these stocks are used for further studies. Stable clones that express the mRNAs are identified by Northern blot analysis as well as Southern blotting to confirm integration site. Long-term cultures are subsequently maintained at 33° C.
TRPV3 expressing CHO cells are assayed electrophysiologically using whole cell voltage clamped techniques. Currents are recorded via pCLAMP8 suite of software via an Axopatch 200A and filtered at 5 kHz. Series-resistance compensation for all experiments is 80% using 2-5 MΩ resistance, fire-polished pipettes. Unless stated, the holding potential for most experiments is −60 mV, apart from the current-voltage relationship studies (2 second ramp from −100 to +80 mV). Cells are normally bathed in a medium containing (mM): NaCl, 140; KCl, 5; Glucose; 10, HEPES, 10; CaCl2, 2; MgCl2 1; titrated to pH 7.4 with NaOH, apart from the monovalent permeability studies, when NaCl is replaced by equimolar KCl or CsCl with the omission of KCl, 5 mM. For the divalent permeability studies, the solutions either contain 1 mM Ca^2+ or Mg^2+ and (mM) NaCl, 100; Glucose, 10; Hepes, 10; sucrose, 80 or 30 mM test ion, in the above solution minus sucrose. The experiments in calcium free media have no added CaCl2 with the addition of 100 μM EGTA. Pipette solution is always (mM) CsCl, 140; CaCl2, 1; EGTA, 10; HEPES, 10; MgATP, 2; titrated to pH7.4 with CsOH. For the permeability, ratios for the monovalent cations relative to Na (PX/PNa) are calculated as follows: PX/PNa=Eshift={RT/F}log(PX/PNa[X]O/[Na]O)

[2] = target: T2, mouse TRPM8 (Mus musculus, UniProt Q8R4D5); test: Fura-2 calcium imaging of TRPM8-expressing CHO cells; format: cell-based
T2 construct: expressed in transfected cells
From the text: Given the similarity of TRPM8 protein to TRPV family members and its unique expression pattern, the effects of heat, capsaicin, cold and menthol in mediating calcium influx are examined using transfected CHO-K1/FRT cells expressing TRPM8 protein and a fluorescent calcium imaging method as described in detail below.
To generate mouse TRPM8-expressing CHO cell lines, mouse TRPM8 cDNA are subcloned in pcDNA5 (Invitrogen), transfected into CHO-K1/FRT cells using Fugene 6 (Roche). The transfected cells are selected by growth in MEM medium containing […] hygromycin (Gibco BRL). Populations are frozen at early passage numbers and these stocks are used for further studies. Stable clones that express the mRNAs are identified by Northern blot analysis as well as Southern blotting to confirm integration site (not shown).
Calcium imaging experiments are performed essentially as previously described (see Savidge et al., Neuroscience, 102:177-184 (2001)). Briefly, cells are plated on glass coverslips and loaded with Fura-2 acetoxymethyl ester ([…]) and incubated for 30-60 minutes at room temperature in […] of pluronic acid (Molecular Probes, Eugene, Oreg.) in a HEPES-buffered saline (2 mM Ca 2+). Coverslips are placed in a laminar flow perfusion chamber (Warner Instrument Corp.) and constantly perfused with HEPES-buffered saline (2 mM Ca^2+) via a local perfusion pipette through which buffer and chilled solutions are also applied. Chilled stimulations consist of a linear decrease (˜1-1.5° C. sec^−1) in perfusate temperature from 33° C. to 10° C. Perfusate temperature is controlled by a regulated Peltier device and is monitored in the cell chamber by a miniature thermocouple. Alternatively, cells are plated on 24-well tissue culture plates, loaded with Fura-2 and application of solutions is performed with a 3 cc syringe over a period of 10 seconds. Images of Fura-2 loaded cells with the excitation wavelength alternating between […] are captured with a cooled CCD camera. Following subtraction of background fluorescence, the ratio of fluorescence intensity at the two wavelengths is calculated. Ratio levels in groups of 20-40 individual cells are analyzed using MetaFluor (Universal Imaging Corporation). All graphs are averaged responses from groups of 20-30 individual cells from representative single experiments. […] Hanks balanced salt solution (HBSS), phosphate buffered saline (PBS) and all cell culture reagents are obtained from Gibco BRL. Ruthenium red, capsaicin and menthol are obtained from Sigma.

[3] = target: T2, mouse TRPM8; test: Whole-cell voltage clamp of TRPM8-expressing CHO cells; format: cell-based
Experimental: To investigate the membrane responses to cold and menthol, voltage clamp experiments are carried out on TRPM8 expressing cells which are prepared as described above.
Cells are plated onto poly-D-lysine coated cover-slips for recording purposes and recordings undertaken 18-24 hours later. Experiments are carried out at room temperature using whole-cell voltage clamp technique, with an Axopatch 2B amplifier, filtered at 5 kHz and pClamp suite of software (Axon Instruments). Series resistant compensation is 80% for all experiments, using 2-5 MΩ fire-polished pipettes. Recording solutions are as follows; pipette solution for all experiments is (mM) CsCl, 140; CaCl2, 1; EGTA, 10; HEPES, 10; MgATP, 2; titrated to pH 7.4 with CsOH. For menthol and cold activated currents the bath solution is (mM): NaCl, 140; KCl, 5; Glucose; 10, HEPES, 10; CaCl2, 2; MgCl2, 1; titrated to pH 7.4 with NaOH. Current-voltage relationships are used to evaluate reversal potentials with voltage ramps from −100 to +60 mV (2 second duration). For the permeability studies for the monovalent ions the NaCl in a simplified bath solution (mM): NaCl, 140; Glucose; 10, HEPES, 10; CaCl2, 2; MgCl2, 1, is substituted by either equimolar CsCl or KCl (titrated with CsOH or KOH). For calcium permeability estimates, the bath solutions contains (mM) NaCl, 100; Glucose, 10 mM; Hepes, 10 mM (titrated with NaOH) plus 1 or 30 mM CaCl2. Osmolarity of solutions are adjusted by addition of sucrose. Permeability ratios for the monovalent cations to Na (PX/PNa) are calculated as follows: PX/PNa=Eshift={RT/F}log(PX/PNa[X]O/[Na]O)
where B′=P′Ca/PNa and P′Ca=PCa/(1+e^EF/RT) and [Ca]O(1) and [Ca]O(2) refer to the two different calcium concentrations. Local perfusion of menthol is via a TC^2bip temperature controller. A Marlow temperature controller is used for the cooling ramps.

[4] = test system: Non-transfected CHO cells; test: Fura-2 calcium imaging of non-transfected CHO cells (control cells); format: cell-based, Chinese Hamster; conditions: tested up to 1 mM
[5] = test system: Non-transfected CHO cells; test: Whole-cell voltage clamp of non-transfected CHO cells (control cells); format: cell-based, Chinese Hamster; conditions: temperatures >23° C.
Experimental: To investigate the membrane responses to cold and menthol, voltage clamp experiments are carried out on TRPM8 expressing cells which are prepared as described above. Cells are plated onto poly-D-lysine coated cover-slips for recording purposes and recordings undertaken 18-24 hours later. […] Series resistant compensation is 80% for all experiments, using 2-5 MΩ fire-polished pipettes. Recording solutions are as follows; pipette solution for all experiments is (mM) CsCl, 140; […] EGTA, 10; HEPES, 10; […] For menthol and cold activated currents the bath solution is (mM): NaCl, 140; KCl, 5; Glucose; 10, HEPES, 10; […] Current-voltage relationships are used to evaluate reversal potentials with voltage ramps from -100 to +60 mV (2 second duration). For the permeability studies for the monovalent ions the NaCl in a simplified bath solution (mM): NaCl, 140; Glucose; 10, HEPES, 10; […] MgCl2, 1, is substituted by either equimolar CsCl or KCl (titrated with CsOH or KOH). For calcium permeability estimates, the bath solutions contains (mM) NaCl, 100; Glucose, 10 mM; Hepes, 10 mM (titrated with NaOH) plus 1 or 30 mM CaCl2. Osmolarity of solutions are adjusted by addition of sucrose. Permeability ratios for the monovalent cations to Na (PX/PNa) are calculated as follows: […]={[…])

T2 sequence (Q8R4D5 whole entry): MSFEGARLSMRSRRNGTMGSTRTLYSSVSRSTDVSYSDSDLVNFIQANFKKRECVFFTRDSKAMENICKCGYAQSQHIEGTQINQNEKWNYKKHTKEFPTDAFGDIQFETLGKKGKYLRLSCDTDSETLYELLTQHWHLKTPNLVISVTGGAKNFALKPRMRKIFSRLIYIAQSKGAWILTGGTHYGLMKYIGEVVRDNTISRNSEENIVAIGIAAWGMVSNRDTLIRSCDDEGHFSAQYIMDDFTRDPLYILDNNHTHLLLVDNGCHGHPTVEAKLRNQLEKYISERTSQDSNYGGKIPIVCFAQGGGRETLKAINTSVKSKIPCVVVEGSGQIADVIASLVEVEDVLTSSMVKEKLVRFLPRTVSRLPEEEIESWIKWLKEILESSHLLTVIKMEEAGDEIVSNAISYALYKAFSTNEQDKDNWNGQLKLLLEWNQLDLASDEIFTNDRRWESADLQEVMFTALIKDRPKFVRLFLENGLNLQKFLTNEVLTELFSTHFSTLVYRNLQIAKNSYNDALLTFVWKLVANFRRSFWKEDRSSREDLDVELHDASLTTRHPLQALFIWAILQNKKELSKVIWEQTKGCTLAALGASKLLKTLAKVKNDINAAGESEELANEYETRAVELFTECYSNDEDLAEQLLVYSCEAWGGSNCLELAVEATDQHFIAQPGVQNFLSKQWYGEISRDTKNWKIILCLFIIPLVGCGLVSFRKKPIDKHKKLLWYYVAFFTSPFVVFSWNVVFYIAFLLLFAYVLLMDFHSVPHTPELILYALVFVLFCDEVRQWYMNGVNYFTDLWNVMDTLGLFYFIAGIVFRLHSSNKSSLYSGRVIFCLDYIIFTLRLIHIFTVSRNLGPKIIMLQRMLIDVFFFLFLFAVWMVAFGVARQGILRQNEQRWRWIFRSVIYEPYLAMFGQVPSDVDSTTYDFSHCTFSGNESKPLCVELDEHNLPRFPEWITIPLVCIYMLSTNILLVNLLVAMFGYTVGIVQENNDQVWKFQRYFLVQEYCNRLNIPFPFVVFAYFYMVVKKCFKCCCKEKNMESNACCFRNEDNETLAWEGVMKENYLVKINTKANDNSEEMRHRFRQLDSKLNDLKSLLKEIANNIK

COc1cc(CNC(=O)CCCC/C=C/C(C)C)ccc1O [Capsaicin, capsaicin]
current response evoked in TRPV3-expressing cells ([1]; 1 μM, whole cell voltage clamp): does not evoke a response | intracellular calcium response evoked in TRPM8 expressing cells ([2]; 10 μM): does not evoke a response

Oc1cc2c(cc1O)CN(C(=S)NCCc1ccc(Cl)cc1)CCC2 [capsazepine]
amplitude of test heat-evoked current relative to the preceding response ([1]; 10 μM applied for 2 minutes prior to the test heat challenge, after 4-5 sensitizing heat steps, no-antagonist control 1.57±0.25): 2.31±0.36 times the amplitude of the preceding response

CC1CCC(C(C)C)C(O)C1 (stereo not shown) [menthol]
inward currents evoked in TRPM8-expressing CHO cells (FIG. 10A) ([3]; 1 mM, Vh=−60 mV, 25° C.): Inward currents evoked | concentration-response relationship of evoked currents at 22° C. versus 35° C. ([3]; +60 mV, 0.1, 0.5, 1 and 10 mM): shifted to the left at the lower temperature | Erev of the menthol activated current ([3]; CsCl pipette, NaCl-based bath solution, n=12): −9.28±0.75 mV | currents evoked in TRPM8 expressing cells ([3]; temperatures above the threshold for cold activation (>23° C.)): evokes rapidly activating currents | calcium response of TRPM8 expressing cells upon lowering the temperature to 30° C. ([2]; 30° C., 10 μM (FIG. 7E)): intracellular calcium levels increases; also recorded: marked increase in intracellular Ca^2+ | calcium response of TRPM8 expressing cells at 33° C. ([2]; 33° C., 10 μM (FIG. 7E)): does not induce a calcium response; also recorded: does not elicit an influx of Ca^2+ | intracellular calcium (Fura-2 fluorescence) response of TRPM8 cells ([2]; cells incubated at 25° C., 10 and 100 μM): increases significantly; also recorded: responds to menthol | desensitization of TRPM8-expressing cells on repeated applications ([2]; repeated applications (FIG. 7E)): do not appear to desensitize | calcium response of non-transfected CHO cells [4]: completely insensitive; also recorded: no increase in [Ca^2+]i | currents evoked in non-transfected CHO cells [5]: not in non-transfected CHO cells

N.N.N.N.N.N.N.N.N.N.N.N.N.N.[Cl-].[Cl-].[Cl-].[Cl-].[Cl-].[Cl-].[O-2].[O-2].[Ru+3].[Ru+3].[Ru+4] [ruthenium red]
relative amplitude of the heat response (test heat-evoked current relative to the preceding response) ([1]; 1 μM applied for 2 minutes prior to the test heat challenge, after 4-5 sensitizing heat steps, no-antagonist control 1.57±0.25): 0.34±0.03 | effect on sensitization and heat response of TRPV3 (FIG. 4D) ([1]; 1 μM, repeated heat steps): attenuates the sensitization and inhibits the heat response | suppression of the temperature (cold) calcium response of TRPM8 expressing cells ([2]; 5 μM): does not suppress the temperature response
